Laboratory results taken from patent US4816487A, “1-(2-hydroxyaryl)-alkane-1-on-oximes-procedure of preparation and use in pharmaceuticals” (Humboldt-Universitaet zu Berlin, priority 1985, dated 1989).

Legend:
[1] = test system: trachea isolated from guinea pig; assay: carbachol-induced contraction of trachea isolated from guinea pig; conditions: spasm by 3.9 μM carbachol; clearly detectable even at 50 μM of active substance
Description: Action of 5-methyl-2-hydroxy-laurophenone-oxime on carbachol-induced contraction of trachea isolated from guinea pig:
The compound was checked for anti-asthmatic activity by means of measuring methods well established and known from the literature (cf p. 5) but modified for the purpose of this invention, using a tracheal spiral isolated from guinea pig. Measurements were conducted in thermostat-controlled organ bath in isotonic condition, using a contraction gauge with lever-type sensor, measuring coil, and measuring amplifier (inductive measurement by means of high-frequency oscillating circuit). Air was used for gassing. The suspension solution was of the following composition: 39.46 g of sodium chloride, 2.2 g of potassium chloride, 6.07 g of tris, 1.0 g of calcium chloride, 9.9 g of glucose, 1.0 ml of saturated magnesium chloride solution, 43 ml 1N hydrochloric acid per 5 l, pH 7.4.
Spasm was induced by 3.9 μM of carbachol.

[2] = molecular target: T1, lipoxygenase-1 from soybean (Glycine max, UniProt P08170); assay: inhibition of soybean lipoxygenase-1; type: biochemical; conditions: ultimate concentration 1.0 mM; read-out: Inhibition (percent) of lipoxygenase from soybean
T1 construct: purchased
T1 sequence (P08170 1-839): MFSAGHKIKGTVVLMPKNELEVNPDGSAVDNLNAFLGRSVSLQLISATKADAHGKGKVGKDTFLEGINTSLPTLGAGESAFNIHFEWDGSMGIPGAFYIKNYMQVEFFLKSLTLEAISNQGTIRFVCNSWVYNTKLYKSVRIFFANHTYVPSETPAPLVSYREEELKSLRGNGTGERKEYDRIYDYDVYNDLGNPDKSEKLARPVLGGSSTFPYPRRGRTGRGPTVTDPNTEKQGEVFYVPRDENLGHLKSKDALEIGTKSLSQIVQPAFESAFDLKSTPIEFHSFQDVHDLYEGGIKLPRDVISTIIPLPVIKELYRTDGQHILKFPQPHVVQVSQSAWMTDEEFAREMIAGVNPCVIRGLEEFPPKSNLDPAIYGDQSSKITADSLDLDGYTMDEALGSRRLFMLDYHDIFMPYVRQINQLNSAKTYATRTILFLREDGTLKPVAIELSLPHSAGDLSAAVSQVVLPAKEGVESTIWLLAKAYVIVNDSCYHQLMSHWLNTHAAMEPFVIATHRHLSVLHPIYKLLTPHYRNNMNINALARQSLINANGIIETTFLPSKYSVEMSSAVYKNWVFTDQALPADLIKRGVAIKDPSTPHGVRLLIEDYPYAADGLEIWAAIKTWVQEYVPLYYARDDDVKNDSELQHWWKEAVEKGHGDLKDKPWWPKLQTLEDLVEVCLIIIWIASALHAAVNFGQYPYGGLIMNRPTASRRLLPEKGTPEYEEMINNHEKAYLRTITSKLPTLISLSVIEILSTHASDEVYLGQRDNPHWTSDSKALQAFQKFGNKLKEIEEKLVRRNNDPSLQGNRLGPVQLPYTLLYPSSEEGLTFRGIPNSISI
Description: Persuasive evidence to inhibition of lipoxygenase was produced by a suitable animal lipoxygenase which had been isolated from rabbit reticulocytes, using a method by Rapoport and coworkers /S. M. Rapoport et al., Eur. J. Biochem. 96, 545 (1979)/. A final concentration of 1 mM of most of the compounds, according to this invention, produced inhibition of 90 percent or more (cf. Example 20). Significant inhibition was even recordable from a final concentration of 0.1 mM of some of the compounds, according to this invention. Substance concentrations were varied to determine the titration curves of inhibition and from these the half-inhibition concentrations (I50 -values). A half-inhibition concentration of 7 μM was established for 5-methyl-2-hydroxy-laurophenone-oxime, an oxime of high anti-asthmatic effectiveness.
Lipoxygenase from rabbit reticulocytes was obtained in electrophoretically and immunologically pure form by means of the method described in the literature /S. M. Rapoport et al., Eur. J. Biochem. 96, 545 (1979)/. Lipoxygenase activity was determined at 25° C. by amperometric measurement of oxygen consumption by means of a Clark electrode in the following system: 0.1M potassium phosphate, pH 7.4, with 0.2-per-cent sodium cholate and 0.53 mM linoleic acid. The enzyme concentration was […] in the sample for measurement. The substances submitted for testing were dissolved in methyl glycol (fresh distillation in vacuum) and pre-incubated ten minutes with the enzyme at measurement temperature and in the absence of sodium cholate and linoleic acid. […] No remarkable inhibition occurred to control samples under these conditions. Enzyme reaction was started by addition of sodium cholate and linoleic acid. The titration curve of inhibition and, consequently, the concentrations required for inhibition by the order of 50 per cent were determined by variation of active substance concentrations. For comparison, the compounds were tested also on commercial lipoxygenase-1 from soybean.

[3] = test system: sensitised guinea pig; assay: allergen (ovalbumin)-induced bronchoconstriction in vivo of sensitised guinea pig (allergic asthma of guinea pig); conditions: for tolerance of additional/successive ovalbumin injections: pretreated animals, two additional (three successive) injections of 40 μg ovalbumin
Excerpt: These pharmacological properties were largely verified by measuring methods which were, basically, known from the literature. They were, however, applied in a modified form. […] 63, 1 (1979); M. W. Schneider and J. M. Drazen, Amer. Rev. Resp. Dis. 121, 835 (1980); S. S. Yen and W. Kreutner, Agents Actions 10, 174 (1980); S. S. Yen, Prostaglandins 22, 183 (1981); Adcock, J. J.; Garland, L. G.; Brit. J. Pharmacol. 69, 167 (1980); W. Diamantis, J. L. Melton; D. Sofia et al., Europ. J. Pharmacol. 56, 407 (1979); P. Anderson, Brit. J. Pharmacol. 77, 301 (1982)].
It was, remarkably, observed that all control animals died of apnoea after one single intraperitoneal application of ovalbumin (40 μg/kg body weight), following protracted and extremely severe asthmatic reaction (anaphylactic shock?).
Action on allergen-induced bronchoconstriction in vivo of sensitised guinea pig ("allergic asthma of guinea pig"):
This test was applied to male guinea pigs, 30 to 35 days from sensitisation, using 330 mg of aluminium hydroxide and 33 μg of ovalbuminper one kilogram of body weight (fresh preparation in physiological sodium chloride solution).
(Method was modified according to P. Anderson, Brit. J. Pharmacol. 77, 301 (1982).) The animals were anaesthetised by intraperitoneal application of 1.3 g/kg body weight of urethane, while 2 mg/kg body weight of Pavulon® were intravenously injected for muscular relaxation. Intravenous injection of 40 μg of ovalbumin triggered off the allergen-induced bronchoconstriction which developed to the full scale of anaphylactic shock in all control animals, within few seconds. The animals, tracheostomised and with venous catheters, were artificially ventilated at rhythmic negative pressure in a tank respirator (f=16 min^-1; inspiration:expiration=1:1). Gas flow(V), breathing volume (VT), and ECG were checked in the course of pneumotachography. The animals had been pretreated by two intraperitoneal injections of finely crushed 5-methyl-2-hydroxylaurophenone-oxime, suspended in agar-agar. […]

## CCCCCCCCCCCC(=NO)c1cc(C)ccc1O [5-methyl-2-hydroxy-laurophenone-oxime]
[1]
  dilatation after carbachol-induced spasm: strong dilatation
[2]
  inhibition at 1000 µM: 67%
[3]; 2 x 10 mg/kg i.p., 90 and 60 minutes prior, 40 μg ovalbumin i.v., all probands
  inhibition of ovalbumin-induced asthma reaction: Complete inhibition
[3]
  tolerance of additional/successive ovalbumin injections: tolerated without reaction
[3]; listed as 5-methyl-2-hydroxyl-laurophenone-oxime
  tolerance of additional/successive ovalbumin injections: tolerated without any sign of bronchoconstriction
